From ChEMBL document CHEMBL1201862, “PubChem BioAssay data set” (2004)
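Step 1: Grow cells in 96-well plates. Step 2: Expose to compound for 48 hours at 5 concentrations. Step 3: Interpolate endpoints linearly; if unreached, use highest concentration. GI50 marks 50% less growth.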 The source made the active and inactive calls. No stated cut-off is given here; in the data, active = GI50 up to about 1.1 µM and inactive = higher.

Key:
Test in all cases: NCI tumour cell line growth inhibition, 48 h
COLO 205 = test system: COLO 205
SW-620 = test system: SW-620
UACC-62 = test system: UACC-62
U-251 = test system: U-251
NCI-H23 = test system: NCI-H23
A549 = test system: A549
K562 = test system: K562
TK-10 = test system: TK-10
HCC 2998 = test system: HCC 2998
RPMI-8226 = test system: RPMI-8226
SK-MEL-5 = test system: SK-MEL-5
SF-539 = test system: SF-539
HCT-116 = test system: HCT-116
NCI-H460 = test system: NCI-H460
A498 = test system: A498
SNB-75 = test system: SNB-75
Malme-3M = test system: Malme-3M
HL-60 = test system: HL-60
HCT-15 = test system: HCT-15
IGROV-1 = test system: IGROV-1

Structure (SMILES)	GI50 (COLO 205)	GI50 (SW-620)	GI50 (UACC-62)	GI50 (U-251)	GI50 (NCI-H23)	GI50 (A549)	GI50 (K562)	GI50 (TK-10)	GI50 (HCC 2998)	GI50 (RPMI-8226)	GI50 (SK-MEL-5)	GI50 (SF-539)	GI50 (HCT-116)	GI50 (NCI-H460)	GI50 (A498)	GI50 (SNB-75)	GI50 (Malme-3M)	GI50 (HL-60)	GI50 (HCT-15)	GI50 (IGROV-1)
CNC(=O)CNC(=O)CCC(=O)N(C)C	> 100 µM (inactive)	> 100 µM (inactive)	> 100 µM (inactive)	> 100 µM (inactive)	> 100 µM (inactive)	> 100 µM (inactive)	> 100 µM (inactive)	> 100 µM (inactive)	> 100 µM (inactive)	> 100 µM (inactive)	> 100 µM (inactive)	> 100 µM (inactive)	> 100 µM (inactive)	> 100 µM (inactive)	> 100 µM (inactive)	> 100 µM (inactive)	> 100 µM (inactive)	> 100 µM (inactive)	> 100 µM	> 100 µM (inactive)
Cc1cc(=O)n2nc(CSc3nnc(S)s3)sc2n1	> 100 µM (inactive)	> 100 µM (inactive)	> 100 µM (inactive)	> 100 µM (inactive)	> 100 µM (inactive)	> 100 µM (inactive)	> 100 µM (inactive)	> 100 µM (inactive)	> 100 µM (inactive)	> 100 µM (inactive)	> 100 µM (inactive)	> 100 µM (inactive)	> 100 µM (inactive)	> 100 µM (inactive)		> 100 µM (inactive)	> 100 µM (inactive)	> 100 µM (inactive)	> 100 µM	> 100 µM (inactive)
O=c1ccc2nc3cc(Br)ccc3sc-2c1	> 100 µM (inactive)	> 100 µM (inactive)	30.9 µM (inactive)	> 100 µM (inactive)	> 100 µM (inactive)	> 100 µM (inactive)	22.4 µM (inactive)	> 100 µM (inactive)	> 100 µM (inactive)		62.8 µM (inactive)	> 100 µM (inactive)	> 100 µM (inactive)	> 100 µM (inactive)		> 100 µM (inactive)	> 100 µM (inactive)	13.5 µM (inactive)	74.1 µM	> 100 µM (inactive)
CSc1nc(Cl)c2c(n1)Sc1ncnn1C2O (centres undefined)	0.843 µM (active)	2.88 µM (inactive)	12.6 µM (inactive)	14.9 µM (inactive)	14.2 µM (inactive)	19.8 µM (inactive)	3.62 µM (inactive)	17.2 µM (inactive)	13.6 µM (inactive)			0.318 µM (active)	5.12 µM (inactive)	21 µM (inactive)	20 µM (inactive)		3.18 µM (inactive)	0.0547 µM (active)	4.37 µM	18.9 µM (inactive)
COC1CCC(O)C(CO)O1 (centres undefined)		24.3 µM (inactive)	> 100 µM (inactive)	> 10 µM (inactive)	> 100 µM (inactive)	> 100 µM (inactive)	11.2 µM (inactive)	> 100 µM (inactive)	> 100 µM (inactive)		> 100 µM (inactive)	41.2 µM (inactive)	> 100 µM (inactive)	> 100 µM (inactive)		> 100 µM (inactive)	20.5 µM (inactive)	31.7 µM (inactive)	> 100 µM	22.7 µM (inactive)
c1ccc2c(c1)SP1Sc3ccccc3P21 (centres undefined)	> 100 µM (inactive)	> 100 µM (inactive)	> 85.1 µM (inactive)	> 100 µM (inactive)	> 100 µM (inactive)	> 100 µM (inactive)	> 87.3 µM (inactive)		90.6 µM (inactive)	59.6 µM (inactive)	> 100 µM (inactive)	> 100 µM (inactive)	> 80 µM (inactive)	> 100 µM (inactive)	> 100 µM (inactive)	61.9 µM (inactive)	> 100 µM (inactive)	> 72.8 µM (inactive)	> 100 µM	> 100 µM (inactive)
O=C1C(=Cc2cccc(O)c2)N=C(c2ccccc2)N1n1c(-c2ccccc2)nc2ccccc2c1=O	31.4 µM (inactive)	42.3 µM (inactive)	19.7 µM (inactive)	35.4 µM (inactive)	22.1 µM (inactive)	36.9 µM (inactive)	37.3 µM (inactive)	48.3 µM (inactive)		17.4 µM (inactive)	23.7 µM (inactive)	17.9 µM (inactive)	17.5 µM (inactive)	23.6 µM (inactive)	34.7 µM (inactive)		27.7 µM (inactive)	25.2 µM (inactive)	34.7 µM	20.7 µM (inactive)
COc1cc(C2c3cc4c(cc3[C@@H](Nc3ccc5c(c3)OCO5)C3COC(=O)[C@H]23)OCO4)cc(OC)c1O (some centres undefined)	1.68 µM (inactive)	1.2 µM (inactive)	0.322 µM (active)	0.185 µM (active)	0.303 µM (active)	0.0294 µM (active)	0.721 µM (active)		1.42 µM (inactive)	0.774 µM (active)	0.63 µM (active)	0.324 µM (active)	0.74 µM (active)	< 0.01 µM (active)	0.333 µM (active)	0.991 µM (active)	1.42 µM (inactive)	0.043 µM (active)	0.336 µM	2.49 µM (inactive)
O=C(CCC1C(=O)NC(=S)NC1=O)c1ccc2ccccc2c1	> 100 µM (inactive)	> 100 µM (inactive)	> 100 µM (inactive)	> 100 µM (inactive)	> 100 µM (inactive)	> 100 µM (inactive)	> 100 µM (inactive)	> 100 µM (inactive)	> 100 µM (inactive)		> 100 µM (inactive)	> 100 µM (inactive)	> 100 µM (inactive)	> 100 µM (inactive)	> 100 µM (inactive)	> 100 µM (inactive)	> 100 µM (inactive)	> 100 µM (inactive)	> 100 µM	> 100 µM (inactive)
COc1ccc(C2CC(c3c(O)ccc4ccccc34)=NN2)cc1OC (centres undefined)	6.12 µM (inactive)		3.29 µM (inactive)	2.7 µM (inactive)	3.22 µM (inactive)		4.38 µM (inactive)	3.91 µM (inactive)	2.22 µM (inactive)	8 µM (inactive)	2.82 µM (inactive)	4.27 µM (inactive)		2.92 µM (inactive)	18.5 µM (inactive)	1.22 µM (inactive)	4.02 µM (inactive)	4.42 µM (inactive)	4.45 µM	4.43 µM (inactive)
CC(C)C[C@@H](NC(=O)[C@@H](Cc1cccc2ccccc12)NC(=O)N1CCOCC1)B(O)O	48.4 µM (inactive)		63.1 µM (inactive)	> 100 µM (inactive)	51.2 µM (inactive)	> 100 µM (inactive)	57.9 µM (inactive)	31.9 µM (inactive)	> 100 µM (inactive)	32.5 µM (inactive)		43.4 µM (inactive)	33.2 µM (inactive)	> 100 µM (inactive)	31 µM (inactive)			38.7 µM (inactive)	> 100 µM	> 100 µM (inactive)
[O-][n+]1c2c([n+]([O-])c3ccccc31)-c1cccc3cccc-2c13	> 100 µM (inactive)	> 100 µM (inactive)		43 µM (inactive)	47.3 µM (inactive)	> 100 µM (inactive)	> 100 µM (inactive)	> 100 µM (inactive)	> 100 µM (inactive)		> 100 µM (inactive)		> 100 µM (inactive)	91.2 µM (inactive)	> 100 µM (inactive)	18.4 µM (inactive)		> 100 µM (inactive)	> 100 µM	
O=C(O)C12CCCC(CCC1)C2	> 100 µM (inactive)	> 100 µM (inactive)	> 100 µM (inactive)	> 100 µM (inactive)	> 100 µM (inactive)	> 100 µM (inactive)	> 100 µM (inactive)	> 100 µM (inactive)		> 100 µM (inactive)	> 100 µM (inactive)	> 100 µM (inactive)	> 100 µM (inactive)	> 100 µM (inactive)	> 100 µM (inactive)	> 100 µM (inactive)	> 100 µM (inactive)	> 100 µM (inactive)	> 100 µM	> 100 µM (inactive)
CN(C)/C(=N\C#N)NCc1ccccc1	> 100 µM (inactive)	> 100 µM (inactive)	> 100 µM (inactive)	> 100 µM (inactive)	> 100 µM (inactive)	> 100 µM (inactive)		> 100 µM (inactive)	> 100 µM (inactive)		> 100 µM (inactive)	> 100 µM (inactive)	> 100 µM (inactive)	> 100 µM (inactive)					> 100 µM	> 100 µM (inactive)
CC(NNC(=O)c1cc[n+]([BH2-]C#N)cc1)c1ccccc1F (centres undefined)	> 100 µM (inactive)	> 100 µM (inactive)	> 100 µM (inactive)	> 100 µM (inactive)		> 100 µM (inactive)	> 100 µM (inactive)	> 100 µM (inactive)	> 100 µM (inactive)	> 100 µM (inactive)	> 100 µM (inactive)	> 100 µM (inactive)	> 100 µM (inactive)	> 100 µM (inactive)	3.4 µM (inactive)	> 100 µM (inactive)	> 100 µM (inactive)	> 100 µM (inactive)	> 100 µM	> 100 µM (inactive)
CN(C)CCCNC(=O)N/N=C/c1ccccn1	> 10 µM (inactive)	> 10 µM (inactive)	> 10 µM (inactive)			> 10 µM (inactive)	> 10 µM (inactive)	> 10 µM (inactive)	> 10 µM (inactive)	> 10 µM (inactive)	> 10 µM (inactive)	> 10 µM (inactive)	> 10 µM (inactive)	> 10 µM (inactive)	> 10 µM (inactive)	> 10 µM (inactive)	> 10 µM (inactive)	> 10 µM (inactive)	> 10 µM	> 10 µM (inactive)
